Experimental data published in article PMC11274643, “Design, Synthesis, Characterization, and Cytotoxicity of New Pyrazolylmethylene-2-thioxoimidazolidin-4-one Derivatives towards Androgen-Sensitive LNCaP Prostate Cancer Cells” (Biomolecules, 2024).
One block for each compound: values may come before it.

Experiments:
[1] = tested on: AR+LNCaP androgen-sensitive human prostate cancer cell line; test: MTT in vitro cytotoxicity assay, 24 h incubation; format: cell-based; conditions: for IC50: Homo sapiens, MTT; for Selective Index Wi38/Lncap: ratio of IC50 values
Procedure: (§1) The antitumor properties of pyrazolylmethylene-2-thioxoimidazolidin-4-one derivatives (3a–p) against androgen-sensitive (AR^+LNCaP; ATCC CRL-1740, Accession: CVCL_0395) and androgen-insensitive (AR^-PC-3; ATCC CRL-1435, Accession: CVCL_D5ZS) human prostate cancer cell lines in addition to normal human lung fibroblast cell line (Wi38, Accession: CVCL_2759) were evaluated by MTT assay. AR^+LNCaP, AR^-PC-3, and Wi38 cell lines were purchased frozen in liquid nitrogen from Egyptian Company for Production of Vaccines, Sera and Drugs, Cairo, Egypt (VACSERA). Tumor cell lines were stored as monolayer cultures in DMEM supplemented with 10% FBS and 1% penicillin–streptomycin. MTT assay was carried out as described previously in the literature. In brief, AR^+LNCaP, AR^-PC-3, and Wi38 cells were cultured into 96-well plates containing 100 µL of culture medium per each well. […] A control containing only culture medium was also applied. The assay was performed in triplicate. The cells were incubated overnight to grow at 37 °C in 5% CO2. After removing the growth medium, 100 µL of MTT (0.4 mg/mL of PBS) were added. After 24 h of incubation, the supernatant was removed and 100 µL of DMSO (Sigma Aldrich, Germany) were then added to each sample. Absorbance at 550 nm was measured. The formula (Reading of extract/Reading of negative control) × 100 was applied to calculate the viability percentage. The IC50 value of test compounds (3a–p) was also determined using CPE measurements of normal Wi38 cells (normal human lung fibroblast cells). The MTT assay was repeated with the test compounds (3i, 3k, 3o, 3j, 3p, and 3m) using the three cell types which were stimulated by 1 nM DHT after 48 h of incubation. IC50 values were estimated using Graph Pad Prism computer software (International Scientific Community, San Diego, CA, USA) from linear regression analysis of the concentration–response curves plotted for each tested compound [36].
(§2) In vitro cytotoxicity assay was performed to elucidate the antitumor properties of the synthesized derivatives of pyrazolylmethylene-2-thioxoimidazolidin-4-one. […] The cytotoxicity assay was performed using MTT assay as described in the Materials and Methods Section 2.4.1. The test compounds were dissolved in DMSO as stock solutions (<0.5% (v/v)) and stored in the dark at −20 °C. The human prostate cancer cells and normal human lung fibroblast cells were subjected to variable doses of the compounds for 24 h.

[2] = tested on: AR-PC-3 androgen-insensitive human prostate cancer cell line; test: MTT in vitro cytotoxicity assay, 24 h incubation; format: cell-based; conditions: for IC50: Homo sapiens, MTT; for Selective Index Wi38/PC-3: ratio of IC50 values
Procedure: as §1, §2

[3] = tested on: Wi38 normal human lung fibroblast cell line; test: MTT in vitro cytotoxicity assay, 24 h incubation; format: cell-based; conditions: WI-38
Procedure: as §1, §2

[4] = tested on: AR+LNCaP androgen-sensitive human prostate cancer cell line; test: MTT cytotoxicity assay in presence of 1 nM DHT, 48 h incubation; format: cell-based
Procedure: as §1
(§3) The assay was performed in the presence of dihydrotestosterone (1 nM DHT) for 48 h of incubation as previously described. DHT is a potent inducer of androgens that enhances prostate cancer disease progression.

[5] = tested on: AR-PC-3 androgen-insensitive human prostate cancer cell line; test: as above; format: cell-based
Procedure: as §1, §3

[6] = tested on: Wi38 normal human lung fibroblast cell line; test: as above; format: cell-based; conditions: WI-38, read-out: IC50 Wi38
Procedure: as §1, §3

[7] = tested on: active human caspase-3 in AR+LNCaP cells; test: Detection of active Caspase 3 in AR+LNCaP cell lysates (Invitrogen Elisa kit); format: cell-based; parameters: Caspase 3 Conc. (Average): unit not given here; conditions: for Caspase 3 fld / Caspase 3: LNCaP, supplement lab report; for Caspase 3 fld: fold of control; for Caspase 3 Conc. (Average): supplement ELISA read-out, average of two wells
Procedure: Untreated AR^+LNCaP and Enzalutamide-treated AR^+LNCaP were used as negative and positive controls, respectively. AR^+LNCaP cells were cultured in 96-well plates at a cell density of 1 × 10^4 cells/well. Cells were then lysed with 50 µL lysis buffer/well supplemented with the Invitrogen Elisa kit for detection of active human caspase-3 (Invitrogen, Camarillo, CA, USA). Plates were frozen at −80 °C for 30 min and then thawed. The lysate was mixed with 2 Z-DEVD-R110 substrate and incubated at room temperature for 30 min. A fluorescence microplate reader (Tecan, Mainz-Kastel, Germany), was used to measure fluorescence via excitation at 496 nm and emission detection at 520 nm. Values were normalized with total protein content. Active caspase 3 accumulation was determined based on standard dilution series of Human Caspase-3 samples provided with the kit. […]

[8] = tested on: AR+LNCaP cells; test: DNA content at cell cycle stages (Propidium Iodide flow cytometry); format: cell-based, human; conditions: IC50 concentration, 1 nM DHT
Procedure: The amount of DNA contents of AR^+LNCaP cells stimulated with 1 nM DHT and treated with representative test compounds 3i and 3k at the different stages of the cell cycle were quantitatively evaluated as described previously. […] The Ab139418–Propidium Iodide Flow Cytometry Kit for Cell Cycle Analysis (ab139418, Abcam, Cambridge, UK) was employed for this assay following the procedures provided by the supplier.
Firstly, the ab139418-Propidium Iodide Flow Cytometry Kit for Cell Cycle Analysis (Bio vision, Boston, MA, USA) was used to quantify DNA contents at each cell cycle stage as an indicator of the cell cycle growth arrest.

[9] = tested on: AR+LNCaP cells; test: Cell apoptosis assay (Annexin V-FITC, flow cytometry); format: cell-based, human; conditions: IC50 concentration, 1 nM DHT, 24 h
Procedure: Cell apoptosis assay was performed to ensure the efficacy of compounds 3i and 3k against the progression of AR^+LNCaP tumor cell growth in the presence of 1 nM DHT. Untreated AR^+LNCaP and Enzalutamide-treated AR^+LNCaP were used in this assay as negative and positive controls, respectively. AR^+LNCaP cells were precultured in 25 cm^2 flasks. Briefly, 1 nM DHT was then added to the growing cells. […] AR^+LNCaP cells were harvested and fixed with 70% (v/v) ethanol in FBS (Sigma-Aldrich, Germany), then maintained at 4 °C overnight. The cells were resuspended in FBS containing 0.1% (v/v) Triton X-100, 40 µg/mL […], and 0.1 mg/mL RNase then incubated in a dark chamber at 37 °C for 30 min. A flow-cytometer (Becton Dickinson, San Jose, CA, USA) supplemented with an argon ion laser at a wavelength of 488 nm was used to analyze the AR^+LNCaP cell apoptotic stages. Based on the protocol described by Ozgur et al. (2003), analysis of the data was implemented using Multicycle Software (Phoenix Flow Systems, San Diego, CA, USA; http://www.phoenixflow.com/index.html).
The active compounds 3i and 3k were further analyzed to evaluate their antitumor properties against the growth of the AR^+LNCaP prostate cancer cell line. […] Untreated AR^+LNCaP cells and Enzalutamide reference drug were also used as negative and positive controls in this assay, respectively.

SMILES: O=C1NC(=S)NC1=Cc1cn(-c2ccccc2)nc1-c1ccc(Br)cc1 [Compound 3c, 5-((3-(4-Bromophenyl)-1-phenyl-1H-pyrazol-4-yl)methylene)-2-thioxoimidazolidin-4-one]
melting point: 193 to 195 °C
IC50 [1]: 110 ± 2.06 µM
Selective Index Wi38/Lncap [1]: 0.8
IC50 [2]: 20.9 ± 1.12 µM
Selective Index Wi38/PC-3 [2]: 4.2
IC50 [3]: 87.9 ± 2.96 µM

SMILES: COc1cccc2c1C(=O)c1c(O)c3c(c(O)c1C2=O)C[C@@](O)(C(=O)CO)C[C@@H]3O[C@H]1C[C@H](N)[C@H](O)[C@H](C)O1 [Doxorubicin, reference compound]
IC50 [1]: 11.4 ± 0.16 µM
Selective Index Wi38/Lncap [1]: 1.3
IC50 [2]: 10 ± 0.18 µM
Selective Index Wi38/PC-3 [2]: 1.5
IC50 [3]: 15.14 ± 0.12 µM

SMILES: Cc1ccc(-c2nn(-c3ccccc3)cc2C=C2NC(=S)NC2=O)cc1 [Compound 3f, 5-((1-Phenyl-3-(p-tolyl)-1H-pyrazol-4-yl)methylene)-2-thioxoimidazolidin-4-one]
melting point: 189 to 191 °C
IC50 [1]: 54.19 ± 0.11 µM
Selective Index Wi38/Lncap [1]: 1.0
IC50 [2]: 20.19 ± 0.04 µM
Selective Index Wi38/PC-3 [2]: 2.8
IC50 [3]: 56.56 ± 0.14 µM

SMILES: O=C1NC(=S)NC1=Cc1cn(-c2ccccc2)nc1-c1ccccc1 [Compound 3e, 5-((1,3-Diphenyl-1H-pyrazol-4-yl)methylene)-2-thioxoimidazolidin-4-one]
melting point: 168 to 179 °C
IC50 [1]: 33.9 ± 0.12 µM
Selective Index Wi38/Lncap [1]: 1.9
IC50 [2]: 20.1 ± 0.21 µM
Selective Index Wi38/PC-3 [2]: 3.2
IC50 [3]: 63.24 ± 0.26 µM

SMILES: Nc1ccc(-c2nn(-c3ccccc3)cc2C=C2NC(=S)NC2=O)cc1 [Compound 3g, 5-((3-(4-Aminophenyl)-1-phenyl-1H-pyrazol-4-yl)methylene)-2-thioxoimidazolidin-4-one]
melting point: 195 to 197 °C
IC50 [1]: 47.31 ± 0.18 µM
Selective Index Wi38/Lncap [1]: 1.2
IC50 [2]: 26.8 ± 0.39 µM
Selective Index Wi38/PC-3 [2]: 2.1
IC50 [3]: 56.62 ± 0.16 µM

SMILES: CNC(=O)c1ccc(N2C(=S)N(c3ccc(C#N)c(C(F)(F)F)c3)C(=O)C2(C)C)cc1F [Enzalutamide, reference compound]
Caspase 3 fld [7]: 6.923
Caspase 3 [7]: 532.4 pg/mL
Caspase 3 Conc. (Average) [7]: 532.4
DNA Content (%) G0–G1 [8]: 61.02%
DNA Content (%) G2/M [8]: 25.37%
Early Apoptosis (%) [9]: 9.46%
Late Apoptosis (%) [9]: 21.27%
Necrotic Cells (%) [9]: 3.13%
Total Apoptosis (%) [9]: 33.86%

The next lines start with results.

melting point: 178 to 179 °C
SMILES: O=C1NC(=S)NC1=Cc1cn(-c2ccc(F)cc2)nc1-c1ccc(F)cc1 [Compound 3h, 5-((1,3-Bis(4-fluorophenyl)-1H-pyrazol-4-yl)methylene)-2-thioxoimidazolidin-4-one]
IC50 [1]: 19.48 ± 0.05 µM
Selective Index Wi38/Lncap [1]: 1.0
IC50 [2]: 18.8 ± 0.14 µM
Selective Index Wi38/PC-3 [2]: 1.0
IC50 [3]: 20.96 ± 0.13 µM

melting point: 179 to 181 °C
SMILES: COc1ccc(-c2nn(-c3ccc(F)cc3)cc2C=C2NC(=S)NC2=O)cc1 [Compound 3n, 5-((1-(4-Fluorophenyl)-3-(4-methoxyphenyl)-1H-pyrazol-4-yl)methylene)-2-thioxoimidazolidin-4-one]
IC50 [1]: 15.02 ± 0.15 µM
Selective Index Wi38/Lncap [1]: 1.8
IC50 [2]: 23.25 ± 0.08 µM
Selective Index Wi38/PC-3 [2]: 1.2
IC50 [3]: 26.93 ± 0.09 µM

melting point: 183 to 185 °C
SMILES: O=C1NC(=S)NC1=Cc1cn(-c2ccccc2)nc1-c1ccc(C(F)(F)F)cc1 [Compound 3d, 5-((1-Phenyl-3-(4-(trifluoromethyl)phenyl)-1H-pyrazol-4-yl)methylene)-2-thioxoimidazolidin-4-one]
IC50 [1]: 23.5 ± 0.74 µM
Selective Index Wi38/Lncap [1]: 2.0
IC50 [2]: 177.2 ± 0.61 µM
Selective Index Wi38/PC-3 [2]: 0.3
IC50 [3]: 48.19 ± 0.21 µM

melting point: 205 to 207 °C
SMILES: O=C1NC(=S)NC1=Cc1cn(-c2ccc(C(F)(F)F)cc2)nc1-c1ccc(F)cc1 [Compound 3o, 5-((3-(4-Fluorophenyl)-1-(4-(trifluoromethyl)phenyl)-1H-pyrazol-4-yl)methylene)-2-thioxoimidazolidin-4-one]
IC50 ([4]; Homo sapiens): 11.75 ± 0.07 µM
Selectivity AR-/AR+ ([4]; IC50 PC-3 / IC50 LNCaP): 1.4
IC50 [5]: 16.4 ± 0.17 µM
CC50 [6]: 22.35 ± 0.13 µM
IC50 [1]: 12.66 ± 0.11 µM
Selective Index Wi38/Lncap [1]: 2.0
IC50 [2]: 21.08 ± 0.1 µM
Selective Index Wi38/PC-3 [2]: 1.2
IC50 [3]: 25.08 ± 0.08 µM
active Caspase 3 fold change compared to untreated cells ([7]; IC50 concentration, 1 nM DHT, AR+LNCaP lysate): 3.5 fold
induction of active caspase 3 as a percentage of the reference drug Enzalutamide ([7]; IC50 concentration, AR+LNCaP): 53.4%
Caspase 3 fld [7]: 3.490
Caspase 3 [7]: 268.4 pg/mL
Caspase 3 Conc. (Average) [7]: 268.4

melting point: 189 to 191 °C
SMILES: O=C1NC(=S)NC1=Cc1cn(-c2ccc(F)cc2)nc1-c1ccccc1 [Compound 3l, 5-((1-(4-Fluorophenyl)-3-phenyl-1H-pyrazol-4-yl)methylene)-2-thioxoimidazolidin-4-one]
IC50 [1]: 20.8 ± 0.04 µM
Selective Index Wi38/Lncap [1]: 1.3
IC50 [2]: 15.3 ± 0.04 µM
Selective Index Wi38/PC-3 [2]: 1.8
IC50 [3]: 26.81 ± 0.06 µM

melting point: 186 to 188 °C
SMILES: O=C1NC(=S)NC1=Cc1cn(-c2ccccc2)nc1-c1ccc(F)cc1 [Compound 3a, 5-((3-(4-Fluorophenyl)-1-phenyl-1H-pyrazol-4-yl)methylene)-2-thioxoimidazolidin-4-one]
IC50 [1]: 26.57 ± 0.04 µM
Selective Index Wi38/Lncap [1]: 2.4
IC50 [2]: 16.8 ± 0.34 µM
Selective Index Wi38/PC-3 [2]: 3.8
IC50 [3]: 63.27 ± 0.18 µM

melting point: 183 to 184 °C
SMILES: O=C1NC(=S)NC1=Cc1cn(-c2ccccc2)nc1-c1ccc(Cl)cc1 [Compound 3b, 5-((3-(4-Chlorophenyl)-1-phenyl-1H-pyrazol-4-yl)methylene)-2-thioxoimidazolidin-4-one]
IC50 [1]: 20.79 ± 0.06 µM
Selective Index Wi38/Lncap [1]: 1.0
IC50 [2]: 21.92 ± 0.12 µM
Selective Index Wi38/PC-3 [2]: 0.9
IC50 [3]: 24.26 ± 0.06 µM
